# Target: T1, human TPO receptor (Homo sapiens, UniProt P40238)
# T1 construct: expressed in transfected cells; host or cells: BaF-B03 (murine IL-3 dependent cell line)
# T1 sequence (P40238 26-635): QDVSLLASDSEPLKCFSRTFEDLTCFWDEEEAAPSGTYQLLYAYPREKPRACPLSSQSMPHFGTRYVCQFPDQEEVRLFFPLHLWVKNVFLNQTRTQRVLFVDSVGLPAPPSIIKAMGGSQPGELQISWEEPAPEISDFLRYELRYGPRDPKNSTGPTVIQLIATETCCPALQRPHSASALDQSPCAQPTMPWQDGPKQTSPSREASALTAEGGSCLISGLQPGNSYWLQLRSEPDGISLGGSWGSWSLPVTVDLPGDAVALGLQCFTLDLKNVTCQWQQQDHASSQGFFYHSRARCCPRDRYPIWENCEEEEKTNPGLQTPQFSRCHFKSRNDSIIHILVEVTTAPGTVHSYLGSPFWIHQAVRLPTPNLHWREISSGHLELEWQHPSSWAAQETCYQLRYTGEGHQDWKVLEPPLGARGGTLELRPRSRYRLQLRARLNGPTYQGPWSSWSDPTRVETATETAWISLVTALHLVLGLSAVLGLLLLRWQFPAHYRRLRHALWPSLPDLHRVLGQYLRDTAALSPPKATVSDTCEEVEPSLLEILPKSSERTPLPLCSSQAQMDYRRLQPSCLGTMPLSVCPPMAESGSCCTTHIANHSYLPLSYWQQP
# Assay: Thrombopoietic activity: proliferation of TPO dependent BaF/hTPOR cells (WST-1)
# Assay type: cell-based
# Settings: BaF/hTPOR cell line (BaF-B03 with human TPO receptor), without IL-3; 20 hours incubation + 4 hours WST-1, absorbance 450 nm; ED50 = half concentration of the concentration showing maximum thrombopoietic activity
# Protocol: BAF/hTPOR cells were maintained in RPMI medium and WEHI-3B conditioned medium as a source of murine interleukin-3 (IL-3). These cells were washed and resuspended in RPMI medium without a source of murine IL-3 and seeded into each well of 96-well microtiter plates at a density of 5×10^4 cells per well in the absence or presence of various concentration of hTPO or the present compound. After incubation at 37° C. for 20 hours in the 5% CO2 incubator, 10% WST-1 reagent (Takara Biomedicals, Japan) was added to each wells and the cells were further incubated for 4 hours. The absorbance at 450 nm was measured.
row,EC50 [nM],SMILES
1,43,COC(=O)c1ccc2cc(C(=O)Nc3nc(-c4ccc(Cl)c(Cl)c4)cs3)ccc2c1 [Compound A-18]
2,24,CCCCCCCCc1cccc(-c2csc(NC(=O)c3ccc4c(c3)CCC(C(=O)O)C4)n2)c1F (centres unmarked) [Compound B-27]
3,148,O=C(Nc1nc(-c2ccc(Cl)c(Cl)c2)cs1)c1ccc2c(c1)CCC(F)(C(=O)O)C2 (centres unmarked) [Compound A-4]
4,19,O=C(O)c1ccc2cc(C(=O)Nc3nc(-c4cccc(C(F)(F)F)c4F)cs3)ccc2c1 [Compound D-2]
5,48,CC(C)Cc1cccc(-c2csc(NC(=O)c3ccc4c(c3)CCC(C(=O)O)C4)n2)c1F (centres unmarked) [Compound B-19]
6,16500,O=C(O)c1ccc2sc(C(=O)Nc3nc(-c4ccc(Cl)c(Cl)c4)cs3)cc2c1 [Compound E-1]
7,342,O=C(Nc1nc(-c2cccc(C3CCOCC3)c2F)cs1)c1ccc2c(c1)CCC(C(=O)O)C2 (centres unmarked) [Compound B-13]
8,56,CCCCCc1cccc(-c2csc(NC(=O)c3ccc4c(c3)CCC(C(=O)O)C4)n2)c1F (centres unmarked) [Compound B-5]
9,71,O=C(Nc1nc(-c2ccc(Cl)c(Cl)c2)cs1)c1ccc2cc(C(=O)O)sc2c1 [Compound C-2]
10,98,CCCCOc1cccc(-c2csc(NC(=O)c3ccc4c(c3)CCC(C(=O)O)C4)n2)c1F (centres unmarked) [Compound B-16]
11,880,Cc1c(C(=O)O)oc2ccc(C(=O)Nc3nc(-c4ccc(Cl)c(Cl)c4)cs3)cc12 [Compound C-5]
12,190,COC(=O)c1ccc2cc(C(=O)Nc3nc(-c4ccc(Cl)c(Cl)c4)cs3)ccc2n1 [Compound A-22]
13,270,COC(=O)CC1Cc2ccc(C(=O)Nc3nc(-c4ccc(Cl)c(Cl)c4)cs3)cc2C1=O (centres unmarked) [Compound A-13]
14,64,COC(c1cccc(-c2csc(NC(=O)c3ccc4c(c3)CCC(C(=O)O)C4)n2)c1F)C(C)C (centres unmarked) [Compound B-22]
15,66,CCCCCc1cc(-c2csc(NC(=O)c3ccc4c(c3)CCC(C(=O)O)C4)n2)ccc1F (centres unmarked) [Compound B-6]
16,165,COC(=O)C1(F)CCc2cc(C(=O)Nc3nc(-c4ccc(Cl)c(Cl)c4)cs3)ccc2C1 (centres unmarked) [Compound A-5]
17,68,CCCc1cccc(-c2csc(NC(=O)c3ccc4c(c3)CCC(C(=O)O)C4)n2)c1F (centres unmarked) [Compound B-20]
18,45,O=C(O)C1=Cc2ccc(C(=O)Nc3nc(-c4cccc(C(F)(F)F)c4F)cs3)cc2CC1 [Compound D-7]
19,210,O=C(Nc1nc(-c2ccc(Cl)c(Cl)c2)cs1)c1ccc2c(c1)C(=O)CC(C(=O)O)C2 (centres unmarked) [Compound A-6]
20,142,CCOCCc1cccc(-c2csc(NC(=O)c3ccc4c(c3)CCC(C(=O)O)C4)n2)c1F (centres unmarked) [Compound B-30]
21,306,O=C(Nc1nc(-c2ccc(Cl)c(Cl)c2)cs1)c1ccc2c(c1)C(F)CC(C(=O)O)C2 (centres unmarked) [Compound A-9]

row,EC50 [nM],SMILES
1,965,O=C(Nc1nc(-c2ccc(Cl)c(Cl)c2)cs1)c1ccc2c(c1)CC(C(=O)O)CC2 (centres unmarked) [Compound A-3]
2,210,O=C(O)C1=Cc2ccc(C(=O)Nc3nc(-c4cccc(C(F)(F)F)c4F)cs3)cc2C1 [Compound D-5]
3,42,O=C(Nc1nc(-c2cccc(OC(F)(F)F)c2F)cs1)c1ccc2c(c1)CCC(C(=O)O)C2 (centres unmarked) [Compound B-14]
4,214,O=C(Nc1nc(-c2ccc3c(c2)CCCC3)cs1)c1ccc2c(c1)CCC(C(=O)O)C2 (centres unmarked) [Compound B-2]
5,38,CCOC(c1cccc(-c2csc(NC(=O)c3ccc4c(c3)CCC(C(=O)O)C4)n2)c1F)C(C)C (centres unmarked) [Compound B-25]
6,66,CC(C)c1cccc(-c2csc(NC(=O)c3ccc4c(c3)CCC(C(=O)O)C4)n2)c1F (centres unmarked) [Compound B-11]
7,552,COC(=O)C1Cc2ccc(C(=O)Nc3nc(-c4ccc(Cl)c(Cl)c4)cs3)cc2C(=O)C1F (centres unmarked) [Compound A-11]
8,2540,CCOC(=O)C1Cc2cc(C(=O)Nc3nc(-c4cccc(C(F)(F)F)c4F)cs3)ccc2C1=O [Compound D-6]
9,567,O=C(Nc1nc(-c2ccc(Cl)c(Cl)c2)cs1)c1ccc2cc(C(=O)O)oc2c1 [Compound C-4]
10,23,CCCCCCCCCCc1cccc(-c2csc(NC(=O)c3ccc4c(c3)CCC(C(=O)O)C4)n2)c1F (centres unmarked) [Compound B-28]
11,1930,COC(=O)c1cc2ccc(C(=O)Nc3nc(-c4cccc(C(F)(F)F)c4F)cs3)cc2oc1=O [Compound D-8]
12,69,O=C(Nc1nc(-c2cccc(C(F)(F)F)c2F)cs1)c1ccc2c(c1)CCC(C(=O)O)C2 (centres unmarked) [Compound B-1]
13,21,O=C(Nc1nc(-c2cccc(C(F)(F)F)c2F)cs1)c1ccc2sc(C(=O)O)cc2c1 [Compound D-1]
14,104,O=C(Nc1nc(-c2cccc(Cc3ccccc3)c2F)cs1)c1ccc2c(c1)CCC(C(=O)O)C2 (centres unmarked) [Compound B-31]
15,230,O=C(O)CC1Cc2ccc(C(=O)Nc3nc(-c4ccc(Cl)c(Cl)c4)cs3)cc2C1 (centres unmarked) [Compound A-16]
16,74,O=C(Nc1nc(-c2cccc(C3CCCCC3)c2F)cs1)c1ccc2c(c1)CCC(C(=O)O)C2 (centres unmarked) [Compound B-12]
17,250,CCOC(=O)C1=Cc2ccc(C(=O)Nc3nc(-c4cccc(C(F)(F)F)c4F)cs3)cc2C1 [Compound D-4]
18,59,O=C(Nc1nc(-c2cccc(CCc3ccccc3)c2F)cs1)c1ccc2c(c1)CCC(C(=O)O)C2 (centres unmarked) [Compound B-15]
19,49,CCCc1c(Br)ccc(-c2csc(NC(=O)c3ccc4c(c3)CCC(C(=O)O)C4)n2)c1F (centres unmarked) [Compound B-29]
20,2280,COC(=O)[C@@H]1Cc2ccc(C(=O)Nc3nc(-c4ccc(Cl)c(Cl)c4)cs3)cc2[C@H](O)C1 [Compound A-8]
21,28.1,O=C(Nc1nc(-c2cccc(F)c2F)cs1)c1ccc2c(c1)CCC(C(=O)O)C2 (centres unmarked) [Compound B-9]

row,EC50 [nM],SMILES
1,370,O=C(Nc1nc(-c2cccc(C(F)(F)F)c2F)cs1)c1ccc2c(c1)CC(C(=O)O)C2 [Compound D-3]
2,25,CCCCCCCc1cccc(-c2csc(NC(=O)c3ccc4c(c3)CCC(C(=O)O)C4)n2)c1F (centres unmarked) [Compound B-26]
3,110,O=C(Nc1nc(-c2ccc(C(F)(F)F)cc2F)cs1)c1ccc2c(c1)CCC(C(=O)O)C2 (centres unmarked) [Compound B-4]
4,53,O=C(Nc1nc(-c2cccc(C(F)(F)F)c2)c(F)s1)c1ccc2c(c1)CCC(C(=O)O)C2 (centres unmarked) [Compound B-24]
5,250,COC(=O)C1CC(=O)c2cc(C(=O)Nc3nc(-c4ccc(Cl)c(Cl)c4)cs3)ccc2C1 (centres unmarked) [Compound A-7]
6,60,CCCCc1cccc(-c2csc(NC(=O)c3ccc4c(c3)CCC(C(=O)O)C4)n2)c1F (centres unmarked) [Compound B-21]
7,280,O=C(Nc1nc(-c2ccc(F)c(F)c2)cs1)c1ccc2c(c1)CCC(C(=O)O)C2 (centres unmarked) [Compound B-7]
8,40,O=C(Nc1nc(-c2ccc(Cl)c(Cl)c2)cs1)c1ccc2c(c1)CCC(C(=O)O)C2 (centres unmarked) [Compound A-1]
9,96,CCOC(C)(C)c1cccc(-c2csc(NC(=O)c3ccc4c(c3)CCC(C(=O)O)C4)n2)c1F (centres unmarked) [Compound B-32]
10,240,COC(=O)CC1Cc2ccc(C(=O)Nc3nc(-c4ccc(Cl)c(Cl)c4)cs3)cc2C1 (centres unmarked) [Compound A-15]
11,120,O=C(Nc1nc(-c2cccc(C(F)(F)F)c2)cs1)c1ccc2c(c1)CCC(C(=O)O)C2 (centres unmarked) [Compound B-8]
12,219,CCCCc1cccc(-c2csc(NC(=O)c3ccc4c(c3)CCC(C(=O)O)C4)n2)c1 (centres unmarked) [Compound B-3]
13,48,O=C(Nc1nc(-c2ccc(Cl)c(Cl)c2)c(F)s1)c1ccc2c(c1)CCC(C(=O)O)C2 (centres unmarked) [Compound B-10]
14,45,COC(c1cccc(-c2csc(NC(=O)c3ccc4c(c3)CCC(C(=O)O)C4)n2)c1F)C1CCCCC1 (centres unmarked) [Compound B-23]
15,23,O=C(O)c1ccc2cc(C(=O)Nc3nc(-c4ccc(Cl)c(Cl)c4)cs3)ccc2c1 [Compound A-17]
16,146,Cc1sc(NC(=O)c2ccc3c(c2)CCC(C(=O)O)C3)nc1-c1cccc(C(F)(F)F)c1 (centres unmarked) [Compound B-17]
17,376,O=C(O)c1ccc2c(c1)CCC(C(=O)Nc1nc(-c3ccc(Cl)c(Cl)c3)cs1)C2 (centres unmarked) [Compound A-2]
18,995,O=C(Nc1nc(-c2ccc(Cl)c(Cl)c2)cs1)c1ccc2oc(C(=O)O)cc2c1 [Compound C-3]
19,230,O=C(O)CC1Cc2ccc(C(=O)Nc3nc(-c4ccc(Cl)c(Cl)c4)cs3)cc2C1=O (centres unmarked) [Compound A-14]
20,72,O=C(Nc1nc(-c2cccc(C3CCCC3)c2F)cs1)c1ccc2c(c1)CCC(C(=O)O)C2 (centres unmarked) [Compound B-18]

# Source: patent US7169931B2, “Cyclic compounds exhibiting thrombopoietin receptor agonism” (Shionogi & Co., Ltd., priority 2001, dated 2007)
